Relative viability data for six cell lines are collected here from the supplement of paper PMC10307832.

Test in all cases: relative viability (nuclei count vs DMSO), 5 days (fraction); higher = more cells survive
Compound in the assay “17-AAG + Luminespib”: C=CCNC1=C2C[C@@H](C)C[C@H](OC)[C@H](O)[C@@H](C)/C=C(\C)[C@H](OC(N)=O)[C@@H](OC)/C=C\C=C(/C)C(=O)NC(=CC1=O)C2=O [17-AAG] + CCNC(=O)c1noc(-c2cc(C(C)C)c(O)cc2O)c1-c1ccc(CN2CCOCC2)cc1 [Luminespib] (partner 0.01 µM)
A digest of the protocol: (§1)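 Cells from lung cancer lines were seeded into 1536-well plates and, one day later, dosed by pin tool. Treatments were either a single drug or a fixed dose of an anchor drug with five library-drug doses (not always all listed) in √10 steps. After 5 days, nuclei were stained in a one-step fixation (final 0.05% Triton X-100, 1% formaldehyde, 1 ug/ml Hoechst) and counted on 4× images, and relative viability is the treated-to-vehicle nuclei ratio, as the median of duplicate plates.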

Compound in the assay “17-AAG + Foretinib”: C=CCNC1=C2C[C@@H](C)C[C@H](OC)[C@H](O)[C@@H](C)/C=C(\C)[C@H](OC(N)=O)[C@@H](OC)/C=C\C=C(/C)C(=O)NC(=CC1=O)C2=O [17-AAG] + COc1cc2c(Oc3ccc(NC(=O)C4(C(=O)Nc5ccc(F)cc5)CC4)cc3F)ccnc2cc1OCCCN1CCOCC1 [Foretinib] (partner 0.25 µM)
A digest of the protocol: as §1

Compound in the assay “17-AAG + Dasatinib”: C=CCNC1=C2C[C@@H](C)C[C@H](OC)[C@H](O)[C@@H](C)/C=C(\C)[C@H](OC(N)=O)[C@@H](OC)/C=C\C=C(/C)C(=O)NC(=CC1=O)C2=O [17-AAG] + Cc1nc(Nc2ncc(C(=O)Nc3c(C)cccc3Cl)s2)cc(N2CCN(CCO)CC2)n1 [Dasatinib] (partner 0.075 µM)
A digest of the protocol:
as §1

Compound in the assay “17-AAG + Decitabine”: C=CCNC1=C2C[C@@H](C)C[C@H](OC)[C@H](O)[C@@H](C)/C=C(\C)[C@H](OC(N)=O)[C@@H](OC)/C=C\C=C(/C)C(=O)NC(=CC1=O)C2=O [17-AAG] + Nc1ncn([C@H]2C[C@H](O)[C@@H](CO)O2)c(=O)n1 [Decitabine] (partner 2 µM)
A digest of the protocol:
as §1

Turning to RERF-LC-KJ, the relative viability in the assay with 17-AAG + Luminespib (first compound 0.00128 µM) stood at 1.06; in the assay with 17-AAG + Luminespib (first compound 0.004048 µM) it was 0.595; in the assay with 17-AAG + Luminespib (first compound 0.0128 µM), 0.398; with 17-AAG + Luminespib (first compound 0.04048 µM) it was 0.357; in the assay with 17-AAG + Luminespib (first compound 0.128 µM), 0.325; in the assay with 17-AAG + Foretinib (first compound 0.00128 µM) it was 0.883. Also, the relative viability with 17-AAG + Foretinib (first compound 0.004048 µM) worked out at 0.951; with 17-AAG + Foretinib (first compound 0.0128 µM), 0.974; with 17-AAG + Foretinib (first compound 0.04048 µM), 0.346; in the assay with 17-AAG + Foretinib (first compound 0.128 µM), 0.296; with 17-AAG + Dasatinib (first compound 0.00128 µM), 0.742; with 17-AAG + Dasatinib (first compound 0.004048 µM) it was 0.833. Also, the relative viability was 0.276 with 17-AAG + Dasatinib (first compound 0.0128 µM); 0.266 with 17-AAG + Dasatinib (first compound 0.04048 µM); 0.248 with 17-AAG + Dasatinib (first compound 0.128 µM); 0.66 in the assay with 17-AAG + Decitabine (first compound 0.00128 µM); 0.447 with 17-AAG + Decitabine (first compound 0.004048 µM); 0.225 in the assay with 17-AAG + Decitabine (first compound 0.0128 µM). The relative viability turned out to be 0.27 in the assay with 17-AAG + Decitabine (first compound 0.04048 µM) and 0.202 with 17-AAG + Decitabine (first compound 0.128 µM).

As for SK-LU-1, the relative viability worked out at 0.215 with 17-AAG + Luminespib (first compound 0.00128 µM); 0.174 with 17-AAG + Luminespib (first compound 0.004048 µM); 0.176 with 17-AAG + Luminespib (first compound 0.0128 µM); 0.177 with 17-AAG + Luminespib (first compound 0.04048 µM); 0.15 with 17-AAG + Luminespib (first compound 0.128 µM); 0.863 with 17-AAG + Foretinib (first compound 0.00128 µM). Moreover, the relative viability with 17-AAG + Foretinib (first compound 0.004048 µM) came to 0.566; with 17-AAG + Foretinib (first compound 0.0128 µM) it was 0.167; in the assay with 17-AAG + Foretinib (first compound 0.04048 µM), 0.143; with 17-AAG + Foretinib (first compound 0.128 µM), 0.127; with 17-AAG + Dasatinib (first compound 0.00128 µM) it was 0.154; with 17-AAG + Dasatinib (first compound 0.004048 µM) it was 0.0796. Further, the relative viability with 17-AAG + Dasatinib (first compound 0.0128 µM) is 0.0621; with 17-AAG + Dasatinib (first compound 0.04048 µM), 0.0687; in the assay with 17-AAG + Dasatinib (first compound 0.128 µM) it was 0.0526; with 17-AAG + Decitabine (first compound 0.00128 µM), 0.582; with 17-AAG + Decitabine (first compound 0.004048 µM) it was 0.599; in the assay with 17-AAG + Decitabine (first compound 0.0128 µM), 0.402. The figures for the relative viability with 17-AAG + Decitabine (first compound 0.04048 µM) and with 17-AAG + Decitabine (first compound 0.128 µM) were 0.24 and 0.223, respectively.

Turning to SK-MES-1, the relative viability amounted to 0.633 with 17-AAG + Luminespib (first compound 0.00128 µM); 0.327 with 17-AAG + Luminespib (first compound 0.004048 µM); 0.181 with 17-AAG + Luminespib (first compound 0.0128 µM); 0.166 with 17-AAG + Luminespib (first compound 0.04048 µM); 0.157 with 17-AAG + Luminespib (first compound 0.128 µM); 1 with 17-AAG + Foretinib (first compound 0.00128 µM). The relative viability in the assay with 17-AAG + Foretinib (first compound 0.004048 µM) was 0.997; with 17-AAG + Foretinib (first compound 0.0128 µM), 0.501; with 17-AAG + Foretinib (first compound 0.04048 µM), 0.192; in the assay with 17-AAG + Foretinib (first compound 0.128 µM) it was 0.154; with 17-AAG + Dasatinib (first compound 0.00128 µM) it was 0.358; in the assay with 17-AAG + Dasatinib (first compound 0.004048 µM) it was 0.249. Also, the relative viability was determined as 0.11 with 17-AAG + Dasatinib (first compound 0.0128 µM); 0.106 with 17-AAG + Dasatinib (first compound 0.04048 µM); 0.101 in the assay with 17-AAG + Dasatinib (first compound 0.128 µM); 0.405 with 17-AAG + Decitabine (first compound 0.00128 µM); 0.362 with 17-AAG + Decitabine (first compound 0.004048 µM); 0.197 with 17-AAG + Decitabine (first compound 0.0128 µM). Moreover, the relative viability with 17-AAG + Decitabine (first compound 0.04048 µM) was 0.145; in the assay with 17-AAG + Decitabine (first compound 0.128 µM), 0.141.

As to SW 900, the relative viability in the assay with 17-AAG + Luminespib (first compound 0.00128 µM) was 0.183; with 17-AAG + Luminespib (first compound 0.004048 µM), 0.172; in the assay with 17-AAG + Luminespib (first compound 0.0128 µM) it was 0.19; with 17-AAG + Luminespib (first compound 0.04048 µM) it was 0.153; in the assay with 17-AAG + Luminespib (first compound 0.128 µM), 0.153; with 17-AAG + Foretinib (first compound 0.00128 µM) it was 0.868. Moreover, the relative viability with 17-AAG + Foretinib (first compound 0.004048 µM) was found to be 0.735; in the assay with 17-AAG + Foretinib (first compound 0.0128 µM), 0.39; with 17-AAG + Foretinib (first compound 0.04048 µM), 0.119; with 17-AAG + Foretinib (first compound 0.128 µM), 0.0963; in the assay with 17-AAG + Dasatinib (first compound 0.00128 µM), 0.731; in the assay with 17-AAG + Dasatinib (first compound 0.004048 µM) it was 0.314. Further, the relative viability in the assay with 17-AAG + Dasatinib (first compound 0.0128 µM) amounted to 0.118; with 17-AAG + Dasatinib (first compound 0.04048 µM), 0.0729; with 17-AAG + Dasatinib (first compound 0.128 µM), 0.0968; with 17-AAG + Decitabine (first compound 0.00128 µM), 0.45; in the assay with 17-AAG + Decitabine (first compound 0.004048 µM) it was 0.368; with 17-AAG + Decitabine (first compound 0.0128 µM), 0.332. The relative viability was 0.257 with 17-AAG + Decitabine (first compound 0.04048 µM) and 0.181 with 17-AAG + Decitabine (first compound 0.128 µM).

For SW 1573, the relative viability with 17-AAG + Luminespib (first compound 0.00128 µM) came out at 0.285; with 17-AAG + Luminespib (first compound 0.004048 µM), 0.168; with 17-AAG + Luminespib (first compound 0.0128 µM) it was 0.146; with 17-AAG + Luminespib (first compound 0.04048 µM), 0.12; with 17-AAG + Luminespib (first compound 0.128 µM), 0.0673; in the assay with 17-AAG + Foretinib (first compound 0.00128 µM), 0.886. For the same cell line, the relative viability with 17-AAG + Foretinib (first compound 0.004048 µM) stood at 1.01; with 17-AAG + Foretinib (first compound 0.0128 µM), 0.829; with 17-AAG + Foretinib (first compound 0.04048 µM), 0.24; in the assay with 17-AAG + Foretinib (first compound 0.128 µM), 0.113; with 17-AAG + Dasatinib (first compound 0.00128 µM), 0.699; with 17-AAG + Dasatinib (first compound 0.004048 µM), 0.461. Moreover, the relative viability in the assay with 17-AAG + Dasatinib (first compound 0.0128 µM) is 0.135; with 17-AAG + Dasatinib (first compound 0.04048 µM), 0.136; with 17-AAG + Dasatinib (first compound 0.128 µM) it was 0.0753; with 17-AAG + Decitabine (first compound 0.00128 µM), 0.336; in the assay with 17-AAG + Decitabine (first compound 0.004048 µM) it was 0.284; in the assay with 17-AAG + Decitabine (first compound 0.0128 µM), 0.159. In addition, the values for the relative viability with 17-AAG + Decitabine (first compound 0.04048 µM) and with 17-AAG + Decitabine (first compound 0.128 µM) were 0.113 and 0.0972, respectively.

Take UMC-11: the relative viability in the assay with 17-AAG + Luminespib (first compound 0.00128 µM) stood at 0.973; in the assay with 17-AAG + Luminespib (first compound 0.004048 µM) it was 0.94; with 17-AAG + Luminespib (first compound 0.0128 µM), 0.552; with 17-AAG + Luminespib (first compound 0.04048 µM), 0.254; with 17-AAG + Luminespib (first compound 0.128 µM), 0.196; with 17-AAG + Foretinib (first compound 0.00128 µM), 1.02. The relative viability turned out to be 1.04 with 17-AAG + Foretinib (first compound 0.004048 µM); 0.847 in the assay with 17-AAG + Foretinib (first compound 0.0128 µM); 0.27 with 17-AAG + Foretinib (first compound 0.04048 µM); 0.174 with 17-AAG + Foretinib (first compound 0.128 µM); 0.464 with 17-AAG + Dasatinib (first compound 0.00128 µM); 0.455 in the assay with 17-AAG + Dasatinib (first compound 0.004048 µM). Besides, the relative viability came out at 0.376 with 17-AAG + Dasatinib (first compound 0.0128 µM); 0.232 in the assay with 17-AAG + Dasatinib (first compound 0.04048 µM); 0.162 with 17-AAG + Dasatinib (first compound 0.128 µM); 0.484 with 17-AAG + Decitabine (first compound 0.00128 µM); 0.658 with 17-AAG + Decitabine (first compound 0.004048 µM); 0.536 in the assay with 17-AAG + Decitabine (first compound 0.0128 µM). Also, the relative viability in the assay with 17-AAG + Decitabine (first compound 0.04048 µM) stood at 0.523; with 17-AAG + Decitabine (first compound 0.128 µM), 0.255.
